According to ChEMBL document CHEMBL1938230, “6-Position optimization of tricyclic 4-quinolone-based inhibitors of glycogen synthase kinase-3β: discovery of nitrile derivatives with picomolar potency” (Bioorg Med Chem Lett, 2012):

Experiments:
[1] = target: Serine/threonine-protein kinase SMG1 (Homo sapiens) (UniProt Q96Q15); assay: Inhibition of human SMG1 in HL-60 cells lysate assessed as reduction of labeling of acyl-phosphate ATP probe at 100 nM; format: cell-free
[2] = target: T1, Scaffold protein ILK (Homo sapiens) (UniProt Q13418); assay: Inhibition of human ILK in HL-60 cells lysate assessed as reduction of labeling of acyl-phosphate ATP probe at 100 nM; format: cell-free
T1 sequence (whole entry): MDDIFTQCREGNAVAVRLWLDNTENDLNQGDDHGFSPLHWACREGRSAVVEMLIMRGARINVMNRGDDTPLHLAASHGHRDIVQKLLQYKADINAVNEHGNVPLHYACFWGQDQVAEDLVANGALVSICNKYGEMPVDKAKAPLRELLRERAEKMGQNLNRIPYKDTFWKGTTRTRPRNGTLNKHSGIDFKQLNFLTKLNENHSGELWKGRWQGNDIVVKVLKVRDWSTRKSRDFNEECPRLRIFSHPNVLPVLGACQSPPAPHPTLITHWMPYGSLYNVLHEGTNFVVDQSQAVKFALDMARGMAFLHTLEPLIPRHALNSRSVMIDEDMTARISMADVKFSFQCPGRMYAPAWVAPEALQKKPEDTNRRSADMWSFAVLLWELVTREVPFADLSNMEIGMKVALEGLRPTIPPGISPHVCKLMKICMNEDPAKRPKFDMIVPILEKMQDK

[3] = target: T2, Serine/threonine-protein kinase 4 (Homo sapiens) (UniProt Q13043); assay: Inhibition of human MST1 in HL-60 cells lysate assessed as reduction of labeling of acyl-phosphate ATP probe at 100 nM; format: cell-free
T2 sequence (whole entry): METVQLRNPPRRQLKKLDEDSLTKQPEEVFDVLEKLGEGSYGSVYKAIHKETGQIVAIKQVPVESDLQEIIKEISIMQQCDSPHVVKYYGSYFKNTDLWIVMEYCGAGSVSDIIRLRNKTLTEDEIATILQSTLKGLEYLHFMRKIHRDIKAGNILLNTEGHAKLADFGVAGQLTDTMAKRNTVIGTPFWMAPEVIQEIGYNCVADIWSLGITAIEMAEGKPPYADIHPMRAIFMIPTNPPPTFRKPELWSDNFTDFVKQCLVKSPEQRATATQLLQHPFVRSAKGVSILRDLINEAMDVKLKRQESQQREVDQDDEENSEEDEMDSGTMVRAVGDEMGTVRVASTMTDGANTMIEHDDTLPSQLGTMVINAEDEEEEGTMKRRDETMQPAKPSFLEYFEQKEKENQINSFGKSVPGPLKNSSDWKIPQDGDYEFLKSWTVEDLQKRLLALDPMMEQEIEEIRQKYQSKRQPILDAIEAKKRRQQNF

HL-60 [4] = assay: Inhibition of human Wnk1/Wnk2/Wnk4 in HL-60 cells lysate assessed as reduction of labeling of acyl-phosphate ATP probe at 100 nM
[5] = target: T3, Eukaryotic translation initiation factor 2-alpha kinase 3 (Homo sapiens) (UniProt Q9NZJ5); assay: Inhibition of human PEK in HL-60 cells lysate assessed as reduction of labeling of acyl-phosphate ATP probe at 100 nM; format: cell-free
T3 sequence (whole entry): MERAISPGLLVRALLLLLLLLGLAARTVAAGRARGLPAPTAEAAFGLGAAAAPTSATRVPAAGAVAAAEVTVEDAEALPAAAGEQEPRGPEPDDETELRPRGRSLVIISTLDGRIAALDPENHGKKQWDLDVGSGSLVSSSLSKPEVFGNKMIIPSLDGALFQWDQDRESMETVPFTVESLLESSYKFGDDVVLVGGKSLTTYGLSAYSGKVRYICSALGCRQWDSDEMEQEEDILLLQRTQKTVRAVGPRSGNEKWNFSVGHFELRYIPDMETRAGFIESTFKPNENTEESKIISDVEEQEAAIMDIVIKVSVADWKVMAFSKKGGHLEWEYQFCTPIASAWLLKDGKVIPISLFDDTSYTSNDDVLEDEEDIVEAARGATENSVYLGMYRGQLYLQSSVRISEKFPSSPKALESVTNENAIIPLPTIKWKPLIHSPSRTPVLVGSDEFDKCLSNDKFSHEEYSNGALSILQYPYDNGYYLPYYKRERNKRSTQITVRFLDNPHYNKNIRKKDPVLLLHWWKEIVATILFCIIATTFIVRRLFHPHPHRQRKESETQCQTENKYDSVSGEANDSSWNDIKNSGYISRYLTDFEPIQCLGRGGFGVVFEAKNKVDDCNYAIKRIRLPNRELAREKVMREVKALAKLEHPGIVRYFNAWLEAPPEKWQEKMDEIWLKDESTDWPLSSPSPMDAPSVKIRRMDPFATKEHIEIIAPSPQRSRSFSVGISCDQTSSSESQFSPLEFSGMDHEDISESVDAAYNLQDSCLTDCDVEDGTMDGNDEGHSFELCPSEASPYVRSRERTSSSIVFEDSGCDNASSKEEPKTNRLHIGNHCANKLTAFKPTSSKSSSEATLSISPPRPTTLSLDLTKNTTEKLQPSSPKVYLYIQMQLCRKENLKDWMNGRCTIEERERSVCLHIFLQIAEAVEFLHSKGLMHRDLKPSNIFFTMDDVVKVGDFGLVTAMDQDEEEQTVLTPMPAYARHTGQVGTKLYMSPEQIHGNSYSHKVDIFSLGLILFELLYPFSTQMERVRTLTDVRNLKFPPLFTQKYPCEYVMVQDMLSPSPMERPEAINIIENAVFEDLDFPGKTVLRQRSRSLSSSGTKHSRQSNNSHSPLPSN

HL-60 [6] = assay: Inhibition of human MAP3K5/MAP3K6/MAP3K7 in HL-60 cells lysate assessed as reduction of labeling of acyl-phosphate ATP probe at 100 nM
[7] = target: 1-phosphatidylinositol 3-phosphate 5-kinase (Homo sapiens) (UniProt Q9Y2I7); assay: Inhibition of human PIP5K3 in HL-60 cells lysate assessed as reduction of labeling of acyl-phosphate ATP probe at 100 nM; format: cell-free
[8] = target: IKK epsilon/TBK1 (Homo sapiens) (UniProt Q14164+Q9UHD2); assay: Inhibition of human IKKepsilon/TBK1 in HL-60 cells lysate assessed as reduction of labeling of acyl-phosphate ATP probe at 100 nM; format: cell-free

Chain of 1-phosphatidylinositol 3-phosphate 5-kinase (Homo sapiens) (Q9Y2I7 whole entry): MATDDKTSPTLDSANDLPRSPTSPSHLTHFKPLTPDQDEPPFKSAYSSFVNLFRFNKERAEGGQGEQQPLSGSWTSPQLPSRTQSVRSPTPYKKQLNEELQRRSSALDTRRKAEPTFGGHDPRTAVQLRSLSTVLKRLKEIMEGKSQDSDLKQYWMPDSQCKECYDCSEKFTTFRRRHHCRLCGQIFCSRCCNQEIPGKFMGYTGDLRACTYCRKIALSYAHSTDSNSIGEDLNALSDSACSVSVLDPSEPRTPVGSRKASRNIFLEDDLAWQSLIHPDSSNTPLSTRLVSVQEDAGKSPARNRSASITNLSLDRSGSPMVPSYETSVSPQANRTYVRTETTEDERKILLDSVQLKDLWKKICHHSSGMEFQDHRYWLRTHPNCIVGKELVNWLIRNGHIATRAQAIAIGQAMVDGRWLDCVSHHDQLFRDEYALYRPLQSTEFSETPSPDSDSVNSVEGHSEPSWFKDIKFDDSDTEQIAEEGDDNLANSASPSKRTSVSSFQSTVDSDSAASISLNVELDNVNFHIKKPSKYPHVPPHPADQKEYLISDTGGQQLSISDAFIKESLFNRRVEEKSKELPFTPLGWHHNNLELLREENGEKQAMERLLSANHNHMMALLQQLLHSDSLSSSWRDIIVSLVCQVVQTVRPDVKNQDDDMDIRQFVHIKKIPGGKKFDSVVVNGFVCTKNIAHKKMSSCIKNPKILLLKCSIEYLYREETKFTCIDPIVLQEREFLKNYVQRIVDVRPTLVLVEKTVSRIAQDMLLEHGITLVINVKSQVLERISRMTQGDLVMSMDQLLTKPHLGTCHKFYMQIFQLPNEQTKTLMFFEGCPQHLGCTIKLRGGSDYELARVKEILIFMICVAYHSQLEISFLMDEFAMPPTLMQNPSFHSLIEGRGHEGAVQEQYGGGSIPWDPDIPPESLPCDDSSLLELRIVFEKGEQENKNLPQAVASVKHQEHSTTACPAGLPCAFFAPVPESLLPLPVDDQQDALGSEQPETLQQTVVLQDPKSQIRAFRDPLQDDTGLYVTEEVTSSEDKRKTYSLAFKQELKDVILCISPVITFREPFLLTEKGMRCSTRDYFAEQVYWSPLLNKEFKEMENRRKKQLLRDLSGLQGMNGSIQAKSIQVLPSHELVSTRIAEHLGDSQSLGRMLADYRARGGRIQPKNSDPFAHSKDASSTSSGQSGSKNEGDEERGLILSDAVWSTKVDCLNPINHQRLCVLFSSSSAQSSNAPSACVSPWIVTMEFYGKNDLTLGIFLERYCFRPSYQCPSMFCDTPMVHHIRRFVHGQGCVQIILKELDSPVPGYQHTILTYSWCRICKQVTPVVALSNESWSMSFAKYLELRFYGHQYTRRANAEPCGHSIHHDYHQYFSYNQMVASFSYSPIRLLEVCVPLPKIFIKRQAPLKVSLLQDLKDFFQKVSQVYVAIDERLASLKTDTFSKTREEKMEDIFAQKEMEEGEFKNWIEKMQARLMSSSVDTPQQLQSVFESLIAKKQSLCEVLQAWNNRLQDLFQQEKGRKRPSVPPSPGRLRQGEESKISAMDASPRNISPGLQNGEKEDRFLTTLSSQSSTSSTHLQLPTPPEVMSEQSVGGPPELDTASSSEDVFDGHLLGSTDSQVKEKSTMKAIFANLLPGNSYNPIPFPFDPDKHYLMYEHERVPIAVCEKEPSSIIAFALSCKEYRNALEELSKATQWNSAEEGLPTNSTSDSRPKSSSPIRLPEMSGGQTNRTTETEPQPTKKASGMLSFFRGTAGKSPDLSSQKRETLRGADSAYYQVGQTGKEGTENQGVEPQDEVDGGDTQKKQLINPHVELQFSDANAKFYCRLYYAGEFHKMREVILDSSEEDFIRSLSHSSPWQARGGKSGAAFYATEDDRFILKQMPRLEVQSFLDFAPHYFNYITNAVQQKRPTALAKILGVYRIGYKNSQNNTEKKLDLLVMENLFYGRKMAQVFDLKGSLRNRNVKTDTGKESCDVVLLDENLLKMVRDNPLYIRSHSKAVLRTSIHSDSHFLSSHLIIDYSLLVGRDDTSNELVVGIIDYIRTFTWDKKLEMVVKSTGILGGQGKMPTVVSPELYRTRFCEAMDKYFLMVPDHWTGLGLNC

C[C@H]1COc2c(NCCCn3cccn3)c(F)c(N)c3c(=O)c(C#N)cn1c23
< 35%: inhibition [1] | inhibition [2] | inhibition [3] | inhibition at 0.1 µM (HL-60 [4]) | inhibition [5] | inhibition at 0.1 µM (HL-60 [6]) | inhibition [7] | inhibition [8]

C[C@H]1COc2c(NCCCc3ccccn3)c(F)c(N)c3c(=O)c(C#N)cn1c23
< 35%: inhibition [1] | inhibition [2] | inhibition [3] | inhibition at 0.1 µM (HL-60 [4]) | inhibition [5] | inhibition at 0.1 µM (HL-60 [6]) | inhibition [7] | inhibition [8]

C[C@H]1COc2c(NCCCn3cccn3)c(F)c(N)c3c(=O)c(C(=O)O)cn1c23
< 35%: inhibition [1] | inhibition [2] | inhibition [3] | inhibition at 0.1 µM (HL-60 [4]) | inhibition [5] | inhibition at 0.1 µM (HL-60 [6]) | inhibition [7] | inhibition [8]

C[C@H]1COc2c(NCCCc3ccccn3)c(F)c(N)c3c(=O)c(C(=O)O)cn1c23
< 35%: inhibition [1] | inhibition [2] | inhibition [3] | inhibition at 0.1 µM (HL-60 [4]) | inhibition [5] | inhibition at 0.1 µM (HL-60 [6]) | inhibition [7] | inhibition [8]
